# Experimental data taken from ChEMBL document CHEMBL5505976, “Identification of the exosomal PD-L1 inhibitor to promote the PD-1 targeting therapy of gastric cancer” (Eur J Med Chem, 2024).
# Calls of active or inactive are those of the source. The calls are words filed in the database; no cut-off is given here.
# Assays:
# [1] = molecular target: Programmed cell death 1 ligand 1 (Homo sapiens, UniProt Q9NZQ7); assay: Inhibition of exosomal PD-L1 (unknown origin) generation preincubated with compound for 24 hrs followed by strep-d2 acceptor bead addition and measured after 30 mins by HTRF assay
# [2] = Clearance in Sprague-Dawley rat at 25 mg/kg, po measured upto 24 hrs by LC-MS/MS analysis; assay type: ADME, organism-based; conditions: in vivo
# [3] = test system: MFC; assay: Antitumor activity against mouse MFC cells implanted in female mouse assessed as tumor growth inhibition at 25 mg/kg, po in presence of anti-mouse PD-1; conditions: read-out: TGI
# [4] = test system: MGC-803; assay: Inhibition of exosomal PD-L1 expression in human MGC-803 cells incubated for 24 hrs by Western blot analysis; assay type: functional, cell-based; conditions: dose <= 400.0 nM
# [5] = test system: MGC-803; assay: Sensitization of human MGC-803 cells to CD8-positive T cell assessed as increase in activated T cells at 400 nM measured for 48 hrs in presence of recombinant PD-1 by MTS assay; assay type: functional, cell-based
# [6] = test system: MFC; assay: Antitumor activity against mouse MFC cells implanted in female mouse assessed as reduction in tumor weight at 25 mg/kg, po in presence of anti-mouse PD-1; assay type: functional, organism-based
# [7] = test system: MGC-803; assay: Sensitization of human MGC-803 cells to CD8-positive T cell assessed as increase in activated T cells measured for 48 hrs in presence of Nivolumab by MTS assay; assay type: functional, cell-based
# [8] = test system: MFC; assay: Antiproliferative activity against mouse MFC cells transfected with OVA assessed as inhibition of cell proliferation measured for 48 hrs in presence of anti-mouse PD-1 antibody by MTS assay; assay type: functional, cell-based
# [9] = Tmax in Sprague-Dawley rat at 25 mg/kg, po measured upto 24 hrs by LC-MS/MS analysis; assay type: ADME, organism-based; conditions: in vivo
# [10] = Cmax in Sprague-Dawley rat at 25 mg/kg, po measured upto 24 hrs by LC-MS/MS analysis; assay type: ADME, organism-based; conditions: in vivo
# [11] = test system: MGC-803; assay: Sensitization of human MGC-803 cells to CD8-positive T cell assessed as increase in IL-2 level by ELISA analysis; assay type: functional, cell-based; conditions: dose <= 400.0 nM
# [12] = Toxicity in female mouse xenografted with mouse MFC cells transfected with OVA assessed as liver damage at 25 mg/kg, po by H and E staining based analysis; assay type: organism-based; conditions: in vivo
# [13] = test system: MFC; assay: Antitumor activity against mouse MFC cells implanted in female mouse assessed as tumor growth inhibition at 25 mg/kg, po; conditions: read-out: TGI
# [14] = test system: PDC-GC-919; assay: Sensitization of human poor differentiated gastric cancer PDC-GC-919 cells to CD8-positive T cell assessed as increase in activated T cells measured for 48 hrs by MTS assay; assay type: functional, cell-based
# [15] = test system: MFC; assay: Antitumor activity against mouse MFC cells transfected with OVA implanted in female mouse assessed as decrease in accumulation of exosomal PD-L1 in tumor at 25 mg/kg, po; assay type: functional, organism-based
# [16] = test system: MFC; assay: Antitumor activity against mouse MFC cells transfected with OVA implanted in female mouse assessed as increase in IL-2 level in tumor at 25 mg/kg, po in presence of PD-1 antibody by ELISA analysis; assay type: functional, organism-based
# [17] = Toxicity in female mouse xenografted with mouse MFC cells transfected with OVA assessed as kidney damage at 25 mg/kg, po by H and E staining based analysis; assay type: organism-based; conditions: in vivo
# [18] = test system: MGC-803; assay: Sensitization of human MGC-803 cells to CD8-positive T cell assessed as increase in IFN-gamma level by ELISA analysis; assay type: functional, cell-based; conditions: dose <= 400.0 nM
# [19] = Toxicity in female mouse assessed as effect on body weight at 25 mg/kg, po in presence of anti-mouse PD-1 antibody; assay type: organism-based; conditions: in vivo
# [20] = test system: PDC-GC-239; assay: Sensitization of human poor differentiated gastric cancer PDC-GC-239 cells to CD8-positive T cell assessed as increase in activated T cells measured for 48 hrs by MTS assay; assay type: functional, cell-based
# [21] = test system: MGC-803; assay: Effect on exosomes generation in human MGC-803 cells at 400 nM measured for 24 hrs; assay type: functional, cell-based
# [22] = test system: MFC; assay: Antitumor activity against mouse MFC cells transfected with OVA implanted in female mouse assessed as increase in TNF-alpha level in tumor at 25 mg/kg, po in presence of PD-1 antibody by ELISA analysis; assay type: functional, organism-based
# [23] = Toxicity in female mouse xenografted with mouse MFC cells transfected with OVA assessed as spleen damage at 25 mg/kg, po by H and E staining based analysis; assay type: organism-based; conditions: in vivo
# [24] = test system: MFC; assay: Antitumor activity against mouse MFC cells transfected with OVA implanted in female mouse assessed as decrease in accumulation of exosomal PD-L1 in tumor at 25 mg/kg, po in presence of anti-PD-1 antibody; assay type: functional, organism-based
# [25] = test system: MGC-803; assay: Sensitization of human MGC-803 cells to CD8-positive T cell assessed as increase in TNF-alpha level by ELISA analysis; assay type: functional, cell-based; conditions: dose <= 400.0 nM
# [26] = test system: MFC; assay: Antitumor activity against mouse MFC cells transfected with OVA implanted in female mouse assessed as increase in IFN-gamma level in tumor at 25 mg/kg, po in presence of PD-1 antibody by ELISA analysis; assay type: functional, organism-based
# [27] = Half life in Sprague-Dawley rat at 25 mg/kg, po measured upto 24 hrs by LC-MS/MS analysis; assay type: ADME, organism-based; conditions: in vivo
# [28] = test system: T-cell; assay: Cytotoxicity against mouse T cell at 100 uM measured for 24 hrs by MTS assay; assay type: toxicity, cell-based
# [29] = Toxicity in female mouse xenografted with mouse MFC cells transfected with OVA assessed as lung damage at 25 mg/kg, po by H and E staining based analysis; assay type: organism-based; conditions: in vivo
# [30] = AUC (0 to infinity) in Sprague-Dawley rat at 25 mg/kg, po measured upto 24 hrs by LC-MS/MS analysis; assay type: ADME, organism-based; conditions: in vivo
# [31] = Toxicity in female mouse xenografted with mouse MFC cells transfected with OVA assessed as heart damage at 25 mg/kg, po by H and E staining based analysis; assay type: organism-based; conditions: in vivo
# Programmed cell death 1 ligand 1, sequence (Q9NZQ7 whole entry): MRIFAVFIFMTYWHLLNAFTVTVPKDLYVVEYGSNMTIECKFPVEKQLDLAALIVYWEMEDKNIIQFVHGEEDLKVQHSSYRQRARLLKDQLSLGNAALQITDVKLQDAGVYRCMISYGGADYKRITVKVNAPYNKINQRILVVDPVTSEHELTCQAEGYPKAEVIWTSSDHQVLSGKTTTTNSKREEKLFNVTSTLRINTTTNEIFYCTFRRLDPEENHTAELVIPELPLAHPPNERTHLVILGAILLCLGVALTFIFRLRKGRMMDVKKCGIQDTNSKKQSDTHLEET
smiles,measurement,setting,value
O=C(NCCN1CCOCC1)c1ccc(-c2ccc3cc4ccccc4cc3c2)cc1,IC50,[1],> 10000 nM
COc1ccc(-c2ccc(C(=O)NCCN3CCOCC3)cc2)cc1F,IC50,[1],623 nM
COc1ccc(-c2ccc(C(=O)NCCN3CCOCC3)cc2)cn1,IC50,[1],669 nM
O=C(NCCN1CCOCC1)c1ccc(-c2ccn(C3CCCCO3)n2)cc1 (centres undefined),IC50,[1],2590 nM
O=C(NCCN1CCOCC1)c1ccc(-c2cnc3[nH]ccc3c2)cc1,CL,[2],587.3 mL/min/kg
same,inhibition in vivo at 25 mg/kg,[3],69%
same,inhibition,[4],Dose-Dependent Effect
same,Activity,[5],Active
same,Activity,[6],Active
same,Activity,[7],Active
same,Activity,[8],Active
same,Tmax,[9],0.25 h
same,Cmax,[10],1210 ng/mL
same,Activity,[11],Dose-Dependent Effect
same,Activity,[12],Non-Toxic
same,inhibition in vivo at 25 mg/kg,[13],32%
same,Activity,[14],Active
same,Activity,[15],Active
same,Activity,[16],Active
same,Activity,[17],Non-Toxic
same,Activity,[18],Dose-Dependent Effect
same,Activity,[19],Non-Toxic
same,Activity,[20],Active
same,Activity,[21],Active
same,Activity,[22],Active
same,Activity,[23],Non-Toxic
same,Activity,[24],Active
same,Activity,[25],Dose-Dependent Effect
same,Activity,[26],Active
same,half-life,[27],2.73 h
same,Activity,[28],Non-Toxic
same,IC50,[1],108 nM
same,Activity,[29],Non-Toxic
same,AUC,[30],1668.51 ng·h/mL
same,Activity,[31],Non-Toxic
O=C(NCCN1CCOCC1)c1ccc(Cl)cc1 [MOCLOBEMIDE],IC50,[1],3860 nM
N#Cc1ccc(-c2ccc(C(=O)NCCN3CCOCC3)cc2)cc1,IC50,[1],498 nM
Nc1ccc(-c2ccc(C(=O)NCCN3CCOCC3)cc2)cc1,IC50,[1],336 nM
CC(C)(C)OC(=O)Nc1ccc(-c2ccc(C(=O)NCCN3CCOCC3)cc2)cc1,IC50,[1],681 nM
O=C(NCCN1CCOCC1)c1ccc(-c2cc3ccccc3s2)cc1,IC50,[1],648 nM
O=C(NCCN1CCOCC1)c1ccc(-c2ccc3c(c2)OCCO3)cc1,IC50,[1],153 nM
O=C(NCCN1CCOCC1)c1ccc(-c2cncnc2)cc1,IC50,[1],571 nM
CCOC(C)n1cc(-c2ccc(C(=O)NCCN3CCOCC3)cc2)cn1 (centres undefined),IC50,[1],753 nM
Cn1nccc1-c1ccc(C(=O)NCCN2CCOCC2)cc1,IC50,[1],286 nM
O=C(NCCN1CCOCC1)c1ccc(-c2ccc(C(F)(F)F)cc2)cc1,IC50,[1],6820 nM
COc1ncc(-c2ccc(C(=O)NCCN3CCOCC3)cc2)cn1,IC50,[1],461 nM
O=C(NCCN1CCOCC1)c1ccc(-c2ccccc2)cc1,IC50,[1],1540 nM
Cn1ccc2cc(-c3ccc(C(=O)NCCN4CCOCC4)cc3)ccc21,IC50,[1],217 nM
O=C(NCCN1CCOCC1)c1ccc(-c2ccc(F)cc2)cc1,IC50,[1],2240 nM
